Columns and labels:
[1] = target: T1, cloned human serotonin 5-HT2C receptor (Homo sapiens, UniProt P28335); assay: radioligand binding
T1 sequence (P28335 33-458): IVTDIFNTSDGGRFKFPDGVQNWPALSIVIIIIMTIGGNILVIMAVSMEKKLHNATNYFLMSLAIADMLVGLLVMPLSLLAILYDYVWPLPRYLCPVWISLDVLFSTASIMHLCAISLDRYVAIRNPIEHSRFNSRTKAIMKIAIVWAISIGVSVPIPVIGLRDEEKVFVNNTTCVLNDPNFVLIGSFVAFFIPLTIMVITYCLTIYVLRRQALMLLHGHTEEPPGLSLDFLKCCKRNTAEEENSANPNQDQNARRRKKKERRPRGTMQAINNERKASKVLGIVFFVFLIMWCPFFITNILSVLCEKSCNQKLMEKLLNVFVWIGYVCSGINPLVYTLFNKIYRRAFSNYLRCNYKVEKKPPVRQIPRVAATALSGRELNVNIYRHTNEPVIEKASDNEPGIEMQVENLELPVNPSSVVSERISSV

[2] = target: cloned human serotonin 5-HT2A receptor (Homo sapiens, UniProt P28223); assay: radioligand binding; conditions: for Binding Affinity (Ki nM) 5-HT2A±SEM: n = 3, ND = not detected at highest concentration tested
[3] = target: T2, cloned human serotonin 5-HT1A receptor (Homo sapiens, UniProt P08908); assay: radioligand binding; conditions: for affinity for 5-HT1A receptor: stated in words
T2 sequence (P08908 1-422): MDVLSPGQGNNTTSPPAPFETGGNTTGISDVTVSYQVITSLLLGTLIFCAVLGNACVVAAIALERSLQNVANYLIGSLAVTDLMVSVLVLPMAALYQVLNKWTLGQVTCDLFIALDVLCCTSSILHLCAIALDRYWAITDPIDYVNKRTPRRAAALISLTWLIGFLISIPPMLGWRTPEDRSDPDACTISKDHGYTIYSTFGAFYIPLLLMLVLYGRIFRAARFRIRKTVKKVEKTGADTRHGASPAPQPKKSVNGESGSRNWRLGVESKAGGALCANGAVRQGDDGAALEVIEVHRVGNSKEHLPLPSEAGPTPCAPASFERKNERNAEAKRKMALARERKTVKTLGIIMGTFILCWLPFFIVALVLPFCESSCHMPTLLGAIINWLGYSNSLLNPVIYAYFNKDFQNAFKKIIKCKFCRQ

[4] = system: human serotonin 5-HT2C receptor; conditions: isolated natural product; cited from earlier work
[5] = read-out: radioligand affinity KD ± S.D., saturation isotherm

Sequence of cloned human serotonin 5-HT2A receptor (P28223 whole entry): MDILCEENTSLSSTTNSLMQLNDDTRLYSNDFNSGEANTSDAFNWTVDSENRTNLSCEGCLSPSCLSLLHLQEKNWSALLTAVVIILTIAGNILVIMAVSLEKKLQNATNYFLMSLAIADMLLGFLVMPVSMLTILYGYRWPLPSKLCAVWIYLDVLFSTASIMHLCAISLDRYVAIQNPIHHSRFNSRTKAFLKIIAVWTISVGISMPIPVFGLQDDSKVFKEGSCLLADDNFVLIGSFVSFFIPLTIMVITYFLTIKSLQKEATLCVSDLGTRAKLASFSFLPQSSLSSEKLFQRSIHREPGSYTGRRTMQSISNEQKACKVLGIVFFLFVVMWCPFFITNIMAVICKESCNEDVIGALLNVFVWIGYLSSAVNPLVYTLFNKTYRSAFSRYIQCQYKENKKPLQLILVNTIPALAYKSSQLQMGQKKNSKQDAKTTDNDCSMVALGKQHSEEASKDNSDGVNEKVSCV

Binding Affinity (Ki nM) 5-HT2A±SEM [2] | affinity for 5-HT1A receptor [3] | Structure (SMILES) | other results
little or no apparent affinity | little or no apparent affinity | CN1C(=N)NC(=O)/C1=C\c1c[nH]c2cc(Cl)c(Cl)cc12 [Compound 4, (E)-2-amino-5-[(5,6-dichloro-1H-indol-3-yl)methylene]-1-methyl-1H-imidazol-4(5H)-one] | Binding Affinity (Ki nM) 5-HT2C±SEM ([1]; n = 3): little or no apparent affinity
 |  | CN1C(=N)NC(=Cc2c[nH]c3cc(Br)ccc23)C1=O [6-bromo-2′-de-N-methylaplysinopsin] | selectivity for 5-HT2C over 5-HT2A receptor [4]: > 40 fold
 |  | COc1ccccc1N1CCN(CCN(C(=O)c2ccc(F)cc2)c2ccccn2)CC1 [[^3H]MPPF, 4-(2′-Methoxy)-phenyl-1-[2′-(N-2″-pyridinyl)-p-fluorobenzamido]ethyl-piperazine, reference compound] | Kd [3, 5]: 267 ± 36 pM
lack of affinity | lack of affinity | CN1C(=N)N(C)/C(=C/c2c[nH]c3cc(Cl)ccc23)C1=O [Compound 14, (E)-5-[(6-chloro-1H-indol-3yl)methylene]-2-imino-1,3-dimethylimidazolidin-4-one] | 
 |  | CN1CN(c2ccccc2)C2(CCN(CCCC(=O)c3ccc(F)cc3)CC2)C1=O [[^3H]methylspiperone, N-Methyl-8-[4-(4-fluorophenyl)-4-oxobutyl]-1-phenyl-1,3,8-triazaspiro-[4.5]decan-4-one, reference compound] | Kd [2, 5]: 246 ± 42 pM
no detectable affinity | no detectable affinity | CN1C(=N)N(C)/C(=C/c2c[nH]c3cc(Cl)c(Cl)cc23)C1=O [Compound 16, (E)-5-[(5,6-dichloro-1H-indol-3-yl)methylene]-2-imino-1,3-dimethylimidazolidin-4-one] | 

Structure (SMILES) | Binding Affinity (Ki nM) 5-HT2A±SEM [2] | affinity for 5-HT1A receptor [3] | other results
CN1C(=N)N(C)/C(=C/c2c[nH]c3cc(Br)ccc23)C1=O [Compound 15, 5-(6-bromo-1H-indol-3-ylmethylene)-2-imino-1,3-dimethyl-imidazolidin-4-one] | not detectable |  | Ki Selectivity Ratio 5-HT2A/5-HT2C [1]: >45

Source: article PMC2946983 (Bioorganic & medicinal chemistry, 2010)
